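Tested at 5 concentrations; 48 h exposure; 96-well plates; endpoints linearly interpolated, else capped at highest concentration. TGI: concentration producing complete growth inhibition.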 Where a SMILES comes first, the peptide text is derived from it. The star is where a group is joined. Boc = CC(C)(C)OC(=O)*; Bz = O=C(c1ccccc1)*

Test systems include CCRF-CEM leukemia; NCI/ADR-RES ovarian; SNB-75 CNS; MDA-N; MDA-MB-435; SN12C renal; MALME-3M melanoma; A549 NSCLC; NCI-H23 lung; 786-0 renal; NCI-H226 lung; MOLT-4 leukemia; IGROV1 ovarian; LOX IMVI melanoma; SW-620 colon; HL-60(TB) leukemia; PC-3 prostate; COLO 205 colon; NCI-H522 lung; HT29 colon.
Holding throughout (assay): growth of human tumour cells (NCI), 48 h

As to `COc1ccc(/C=C2\CCCC(CN(C)C)C2=O)cc1` (centres undefined), the TGI in the assay with CCRF-CEM leukemia was more than 100 µM; with NCI/ADR-RES ovarian, 6.56 µM; in the assay with SNB-75 CNS, 21.6 µM; in the assay with MDA-N it was 8.5 µM; with MDA-MB-435, 6.96 µM; in the assay with SN12C renal, 7.12 µM. The TGI came to 6.95 µM in the assay with MALME-3M melanoma; 33.9 µM in the assay with A549 NSCLC; 13.9 µM with NCI-H23 lung; 3.47 µM with 786-0 renal; 33.5 µM in the assay on NCI-H226 lung; 2.56 µM with MOLT-4 leukemia. The TGI in the assay on IGROV1 ovarian came to 7.51 µM; in the assay on LOX IMVI melanoma it was 4 µM; with SW-620 colon it was 2.39 µM; in the assay with HL-60(TB) leukemia, 4.62 µM; in the assay on PC-3 prostate, 18.4 µM; in the assay on COLO 205 colon it was 4.45 µM. In addition, the TGI in the assay on NCI-H522 lung turned out to be 2.85 µM; with HT29 colon, 3.47 µM.
As for `O=C(CN1CCN(Cc2ccccc2)CC1)c1ccc2[nH]c(=O)oc2c1`, the TGI in the assay on CCRF-CEM leukemia, with NCI/ADR-RES ovarian, in the assay with SNB-75 CNS, with MDA-N, in the assay with MDA-MB-435 and in the assay with SN12C renal was more than 100 µM each time. The TGI with MALME-3M melanoma was 51.2 µM; in the assay with A549 NSCLC it was more than 100 µM; with NCI-H23 lung it was more than 100 µM; in the assay with 786-0 renal, more than 100 µM; in the assay with NCI-H226 lung it was more than 100 µM; in the assay on MOLT-4 leukemia, more than 100 µM. For the same compound, the TGI in the assay on IGROV1 ovarian, in the assay on LOX IMVI melanoma, with SW-620 colon, with HL-60(TB) leukemia, in the assay on PC-3 prostate and in the assay with COLO 205 colon was more than 100 µM each time. The TGI in the assay on NCI-H522 lung and in the assay with HT29 colon was more than 100 µM each time.
In the case of `Brc1ccc2[nH]cc(-c3csc(-c4ccccn4)n3)c2c1`, the TGI was more than 100 µM with CCRF-CEM leukemia; more than 100 µM with NCI/ADR-RES ovarian; 36.4 µM with SNB-75 CNS; more than 100 µM in the assay on MDA-N; more than 100 µM with MDA-MB-435; 30.7 µM in the assay on SN12C renal. Further, the TGI is 65.2 µM in the assay on MALME-3M melanoma; more than 70.3 µM in the assay with A549 NSCLC; more than 100 µM in the assay on NCI-H23 lung; 20.3 µM in the assay on 786-0 renal; 34.8 µM in the assay with NCI-H226 lung; more than 53.6 µM in the assay on MOLT-4 leukemia. Further, the TGI in the assay on IGROV1 ovarian is more than 88.8 µM; in the assay with LOX IMVI melanoma, 33.2 µM; in the assay on SW-620 colon, 98.6 µM; with HL-60(TB) leukemia it was more than 100 µM; with PC-3 prostate it was 51.7 µM; in the assay on COLO 205 colon it was more than 56.3 µM. The TGI in the assay on NCI-H522 lung is more than 100 µM; in the assay on HT29 colon it was 38.7 µM.
Take `COc1ccccc1/C=C/C1=NN(c2cccc(S(=O)(=O)O)c2)C2(C1)SCC(=O)N2c1nc2ccccc2s1` (centres undefined): the TGI with CCRF-CEM leukemia is 90 µM; in the assay with NCI/ADR-RES ovarian it was more than 100 µM; with SNB-75 CNS, more than 100 µM; with MDA-N it was more than 100 µM; in the assay with MDA-MB-435, more than 100 µM; in the assay on SN12C renal, more than 100 µM. For the same compound, the TGI with MALME-3M melanoma, in the assay on A549 NSCLC, in the assay on NCI-H23 lung, with 786-0 renal, in the assay with NCI-H226 lung and in the assay on MOLT-4 leukemia was more than 100 µM in each case. The TGI in the assay with IGROV1 ovarian, in the assay on LOX IMVI melanoma, in the assay on SW-620 colon, in the assay on HL-60(TB) leukemia, in the assay with PC-3 prostate and with COLO 205 colon was more than 100 µM in each case. Moreover, the TGI in the assay with NCI-H522 lung and in the assay with HT29 colon was more than 100 µM in each case.
On to `CC(NC(=O)C(Cc1ccc(OC(=O)c2ccccc2)cc1)NC(=O)OC(C)(C)C)C(=O)NC(Cc1ccccc1)C(=O)NCC(N)=O` (centres undefined) (Boc-Y(Bz)AFG-NH2; configuration not given here), for which the TGI was more than 100 µM in the assay on CCRF-CEM leukemia; more than 100 µM with NCI/ADR-RES ovarian; 49.6 µM with SNB-75 CNS; 79.4 µM with MDA-N; 47.4 µM in the assay on MDA-MB-435; 42 µM in the assay on SN12C renal. Further, the TGI is 42 µM in the assay on MALME-3M melanoma; 55 µM in the assay with A549 NSCLC; 45.9 µM in the assay with NCI-H23 lung; 43.5 µM in the assay on 786-0 renal; 51 µM in the assay on NCI-H226 lung; more than 100 µM in the assay on MOLT-4 leukemia. The TGI with IGROV1 ovarian was 40.7 µM; in the assay with LOX IMVI melanoma, 49.5 µM; in the assay with SW-620 colon it was more than 100 µM; with HL-60(TB) leukemia, 82 µM; in the assay on PC-3 prostate, 37.3 µM; in the assay on COLO 205 colon, 84.8 µM. The TGI in the assay on NCI-H522 lung came out at 42.6 µM; in the assay on HT29 colon, 34.4 µM.
With `O=c1c2cc(-c3ccccc3)sc2nc2n1N=C(c1ccccc1)CS2`, the TGI in the assay on CCRF-CEM leukemia was more than 100 µM; in the assay on NCI/ADR-RES ovarian it was 57.5 µM; in the assay on SNB-75 CNS, 89.1 µM; in the assay on MDA-N, more than 100 µM; with MDA-MB-435, more than 100 µM; with SN12C renal it was more than 100 µM. The TGI was more than 100 µM in the assay with MALME-3M melanoma; more than 100 µM in the assay with A549 NSCLC; more than 100 µM in the assay with NCI-H23 lung; 38 µM in the assay on 786-0 renal; more than 100 µM in the assay on NCI-H226 lung; more than 100 µM in the assay with MOLT-4 leukemia. Besides, the TGI with LOX IMVI melanoma, in the assay on SW-620 colon, in the assay on HL-60(TB) leukemia, in the assay on PC-3 prostate, in the assay with COLO 205 colon and in the assay on NCI-H522 lung was more than 100 µM throughout.
As for `COc1ccc(/C=C2\CCC(C)C3=C(c4ccc(OC)c(OC)c4)C(C#N)=C(N)OC32)cc1OC` (centres undefined), the TGI with CCRF-CEM leukemia turned out to be 19.2 µM; with NCI/ADR-RES ovarian, 39.4 µM; in the assay on SNB-75 CNS, 8.63 µM; in the assay with MDA-N, 12.1 µM; with MDA-MB-435, 10.1 µM; in the assay with SN12C renal, 28.2 µM. For the same compound, the TGI in the assay with MALME-3M melanoma is 32.2 µM; in the assay on NCI-H23 lung, 13.6 µM; with 786-0 renal, 25.1 µM; in the assay on NCI-H226 lung, 9.83 µM; in the assay on IGROV1 ovarian, 9.45 µM; with LOX IMVI melanoma, 10.9 µM. Further, the TGI in the assay with SW-620 colon was more than 100 µM; with HL-60(TB) leukemia it was 7.75 µM; in the assay on PC-3 prostate, 38.1 µM; in the assay with COLO 205 colon it was 7.74 µM.

(Values after PubChem BioAssay (NCI).)
